PubChem BioAssay (NCI)
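Growth conditions: 96-well plates. Treatment: test compound, 48 hours, 5 concentrations. Analysis: linear interpolation between bracketing concentrations; unreached endpoints set to highest concentration. At the TGI there is no net growth.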

What was measured:
Experiment in all cases: growth of human tumour cells (NCI), 48 h
786-0 renal = system: 786-0 renal
A498 renal = system: A498 renal
A549 NSCLC = system: A549 NSCLC
ACHN renal = system: ACHN renal
BT-549 breast = system: BT-549 breast
CAKI-1 renal = system: CAKI-1 renal
CCRF-CEM leukemia = system: CCRF-CEM leukemia
COLO 205 colon = system: COLO 205 colon
DU-145 prostate = system: DU-145 prostate
EKVX NSCLC = system: EKVX NSCLC
HCC-2998 colon = system: HCC-2998 colon
HCT-116 colon = system: HCT-116 colon
HCT-15 colon = system: HCT-15 colon
HL-60(TB) leukemia = system: HL-60(TB) leukemia
HOP-62 NSCLC = system: HOP-62 NSCLC
HOP-92 NSCLC = system: HOP-92 NSCLC
HS 578T breast = system: HS 578T breast
HT29 colon = system: HT29 colon
IGROV1 ovarian = system: IGROV1 ovarian
K-562 leukemia = system: K-562 leukemia
KM12 colon = system: KM12 colon
LOX IMVI melanoma = system: LOX IMVI melanoma
M14 melanoma = system: M14 melanoma
MALME-3M melanoma = system: MALME-3M melanoma
MCF7 breast = system: MCF7 breast
MDA-MB-231 breast = system: MDA-MB-231 breast
MDA-MB-435 = system: MDA-MB-435
MDA-N = system: MDA-N
MOLT-4 leukemia = system: MOLT-4 leukemia
NCI-H226 lung = system: NCI-H226 lung
NCI-H23 lung = system: NCI-H23 lung
NCI-H460 lung = system: NCI-H460 lung
NCI-H522 lung = system: NCI-H522 lung
NCI/ADR-RES ovarian = system: NCI/ADR-RES ovarian
OVCAR-3 ovarian = system: OVCAR-3 ovarian
OVCAR-4 ovarian = system: OVCAR-4 ovarian
OVCAR-5 ovarian = system: OVCAR-5 ovarian
OVCAR-8 ovarian = system: OVCAR-8 ovarian
PC-3 prostate = system: PC-3 prostate
RPMI-8226 leukemia = system: RPMI-8226 leukemia
RXF 393 renal = system: RXF 393 renal
SF-268 CNS = system: SF-268 CNS
SF-295 CNS = system: SF-295 CNS
SF-539 CNS = system: SF-539 CNS
SK-MEL-2 melanoma = system: SK-MEL-2 melanoma
SK-MEL-28 melanoma = system: SK-MEL-28 melanoma
SK-MEL-5 melanoma = system: SK-MEL-5 melanoma
SN12C renal = system: SN12C renal
SNB-19 CNS = system: SNB-19 CNS
SNB-75 CNS = system: SNB-75 CNS
SR leukemia = system: SR leukemia
SW-620 colon = system: SW-620 colon
T-47D breast = system: T-47D breast
TK-10 renal = system: TK-10 renal
U251 CNS = system: U251 CNS
UACC-257 melanoma = system: UACC-257 melanoma
UACC-62 melanoma = system: UACC-62 melanoma
UO-31 renal = system: UO-31 renal
SK-OV-3 ovarian = system: SK-OV-3 ovarian

`CC(C)c1cc2c(c(O)c1O)[C@@]1(C)CCCC(C)(C)C1=C(O)C2` showed a TGI (786-0 renal) of 11.8 µM, a TGI (A498 renal) of 3.19 µM and a TGI (A549 NSCLC) of 5.73 µM. The TGI (ACHN renal) was 5.39 µM, the TGI (BT-549 breast) was 4.22 µM and the TGI (CAKI-1 renal) was 2.84 µM. For the same compound, the TGI (CCRF-CEM leukemia) was 2.12 µM, the TGI (COLO 205 colon) was 8.06 µM and the TGI (DU-145 prostate) was > 50 µM. For the same compound, the TGI (EKVX NSCLC) was 3.56 µM, the TGI (HCC-2998 colon) was 2.76 µM and the TGI (HCT-116 colon) was > 50 µM. For the same compound, the TGI (HCT-15 colon) was 6.77 µM, the TGI (HL-60(TB) leukemia) was 3.27 µM and the TGI (HOP-62 NSCLC) was 13.4 µM. The TGI (HOP-92 NSCLC) was 2.32 µM, the TGI (HS 578T breast) was 13.4 µM and the TGI (HT29 colon) was 16.1 µM. For the same compound, the TGI (IGROV1 ovarian) was 2.79 µM, the TGI (K-562 leukemia) was 4.13 µM and the TGI (KM12 colon) was 5.78 µM. It also gave a TGI (LOX IMVI melanoma) of 3.14 µM, a TGI (M14 melanoma) of 13.4 µM and a TGI (MALME-3M melanoma) of 3.36 µM. The TGI (MCF7 breast) was 2.85 µM, the TGI (MDA-MB-231 breast) was > 50 µM and the TGI (MDA-MB-435) was 2.77 µM. For the same compound, the TGI (MDA-N) was 6.77 µM, the TGI (MOLT-4 leukemia) was 2.99 µM and the TGI (NCI-H226 lung) was > 50 µM. The TGI (NCI-H23 lung) was 6.8 µM, the TGI (NCI-H460 lung) was 5.89 µM and the TGI (NCI-H522 lung) was 3.06 µM. The TGI (NCI/ADR-RES ovarian) was 2 µM, the TGI (OVCAR-3 ovarian) was 5.26 µM and the TGI (OVCAR-4 ovarian) was 4.55 µM. The TGI (OVCAR-5 ovarian) was 9.03 µM, the TGI (OVCAR-8 ovarian) was 6.99 µM and the TGI (PC-3 prostate) was 3.51 µM. The TGI (RPMI-8226 leukemia) was 2.15 µM, the TGI (RXF 393 renal) was 2.96 µM and the TGI (SF-268 CNS) was 5.84 µM. For the same compound, the TGI (SF-295 CNS) was 4.38 µM, the TGI (SF-539 CNS) was 1.89 µM and the TGI (SK-MEL-2 melanoma) was 2.65 µM. For the same compound, the TGI (SK-MEL-28 melanoma) was 8.69 µM, the TGI (SK-MEL-5 melanoma) was 2.32 µM and the TGI (SN12C renal) was > 50 µM. The TGI (SNB-19 CNS) was 9.32 µM, the TGI (SNB-75 CNS) was 2.56 µM and the TGI (SR leukemia) was 3.21 µM. For the same compound, the TGI (SW-620 colon) was 5.4 µM, the TGI (T-47D breast) was 20 µM and the TGI (TK-10 renal) was 24.2 µM. For the same compound, the TGI (U251 CNS) was 4.54 µM, the TGI (UACC-257 melanoma) was 3.37 µM and the TGI (UACC-62 melanoma) was > 50 µM. It also gave a TGI (UO-31 renal) of 3.95 µM.

For `O=C1OC(c2ccccc2)=N/C1=C\c1ccc(Cl)cc1`, the TGI (786-0 renal) was > 100 µM, the TGI (A498 renal) was > 100 µM and the TGI (A549 NSCLC) was > 100 µM. For the same compound, the TGI (ACHN renal) was > 100 µM, the TGI (BT-549 breast) was > 100 µM and the TGI (CAKI-1 renal) was > 100 µM. The TGI (CCRF-CEM leukemia) was > 100 µM, the TGI (COLO 205 colon) was > 100 µM and the TGI (DU-145 prostate) was > 100 µM. The TGI (EKVX NSCLC) was > 100 µM, the TGI (HCC-2998 colon) was > 100 µM and the TGI (HCT-116 colon) was > 100 µM. The TGI (HCT-15 colon) was > 100 µM, the TGI (HL-60(TB) leukemia) was > 100 µM and the TGI (HOP-62 NSCLC) was > 100 µM. The TGI (HOP-92 NSCLC) was > 100 µM, the TGI (HS 578T breast) was > 100 µM and the TGI (HT29 colon) was > 100 µM. The TGI (IGROV1 ovarian) was > 100 µM, the TGI (K-562 leukemia) was > 100 µM and the TGI (KM12 colon) was > 100 µM. For the same compound, the TGI (LOX IMVI melanoma) was > 100 µM, the TGI (M14 melanoma) was > 100 µM and the TGI (MCF7 breast) was > 100 µM. The TGI (MDA-MB-231 breast) was > 100 µM, the TGI (MDA-MB-435) was > 100 µM and the TGI (MDA-N) was > 100 µM. For the same compound, the TGI (MOLT-4 leukemia) was > 100 µM, the TGI (NCI-H226 lung) was > 100 µM and the TGI (NCI-H23 lung) was > 100 µM. For the same compound, the TGI (NCI-H460 lung) was > 100 µM, the TGI (NCI-H522 lung) was > 100 µM and the TGI (NCI/ADR-RES ovarian) was > 100 µM. For the same compound, the TGI (OVCAR-3 ovarian) was > 100 µM, the TGI (OVCAR-4 ovarian) was > 100 µM and the TGI (OVCAR-5 ovarian) was > 100 µM. For the same compound, the TGI (OVCAR-8 ovarian) was > 100 µM, the TGI (PC-3 prostate) was > 100 µM and the TGI (RPMI-8226 leukemia) was > 100 µM. The TGI (RXF 393 renal) was > 100 µM, the TGI (SF-268 CNS) was > 100 µM and the TGI (SF-295 CNS) was > 100 µM. The TGI (SK-MEL-2 melanoma) was > 100 µM, the TGI (SK-MEL-28 melanoma) was > 100 µM and the TGI (SK-MEL-5 melanoma) was > 100 µM. The TGI (SK-OV-3 ovarian) was > 100 µM, the TGI (SN12C renal) was > 100 µM and the TGI (SNB-19 CNS) was > 100 µM. The TGI (SNB-75 CNS) was > 100 µM, the TGI (SR leukemia) was > 100 µM and the TGI (SW-620 colon) was > 100 µM. For the same compound, the TGI (T-47D breast) was > 100 µM, the TGI (TK-10 renal) was > 100 µM and the TGI (U251 CNS) was > 100 µM. The TGI (UACC-257 melanoma) was > 100 µM, the TGI (UACC-62 melanoma) was > 100 µM and the TGI (UO-31 renal) was > 100 µM.
